Legend:
Format in all cases: in vivo
kochia (Bassia scoparia) [1] = assay: Test A preemergence, kochia; details: Preemergence; for Kochia plant response rating: visual injury on 0 to 100 scale (0 no effect, 100 complete control), approximately 10 days; for Plant response rating, Kochia: 0 to 100 scale (0 no effect, 100 complete control)
Method in brief: (§1)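 Formulated with a surfactant in a non-phytotoxic solvent, compounds are applied to loam–sand pots, either to bare soil immediately after seeding (preemergence) or to seedlings of 2 to 10 cm bearing one to two leaves (postemergence).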

[2] = test system: barnyardgrass (Echinochloa crus-galli); assay: Test A preemergence, barnyardgrass; details: Preemergence; for Barnyardgrass plant response rating: visual injury on 0 to 100 scale (0 no effect, 100 complete control), approximately 10 days; for Plant response rating, Barnyardgrass: 0 to 100 scale (0 no effect, 100 complete control)
Method in brief: as §1

[3] = test system: ragweed (common ragweed, Ambrosia artemisiifolia); assay: Test A preemergence, ragweed; details: Preemergence; for Ragweed plant response rating: visual injury on 0 to 100 scale (0 no effect, 100 complete control), approximately 10 days; for Plant response rating, Ragweed: 0 to 100 scale (0 no effect, 100 complete control)
Method in brief: as §1

[4] = test system: Foxtail, Giant (giant foxtail, Setaria faberi); assay: Test A postemergence, Foxtail, Giant; details: Postemergence, 0 to 100 scale (0 no effect, 100 complete control); for Foxtail, Giant plant response rating: visual injury vs untreated controls after approx. 10 days
Method in brief: as §1

kochia (Bassia scoparia) [5] = assay: Test A postemergence, kochia; details: Postemergence, 0 to 100 scale (0 no effect, 100 complete control); for Kochia plant response rating: visual injury vs untreated controls after approx. 10 days
Method in brief: as §1

[6] = test system: Foxtail, Giant (giant foxtail, Setaria faberi); assay: Test A preemergence, Foxtail, Giant; details: Preemergence; for Foxtail, Giant plant response rating: visual injury on 0 to 100 scale (0 no effect, 100 complete control), approximately 10 days; for Plant response rating, Foxtail, Giant: 0 to 100 scale (0 no effect, 100 complete control)
Method in brief: as §1

[7] = test system: Ryegrass, Italian (Italian ryegrass, Lolium multiflorum); assay: Test A preemergence, Ryegrass, Italian; details: Preemergence; for Ryegrass, Italian plant response rating: visual injury on 0 to 100 scale (0 no effect, 100 complete control), approximately 10 days; for Plant response rating, Ryegrass, Italian: 0 to 100 scale (0 no effect, 100 complete control)
Method in brief: as §1

corn (Zea mays) = assay: Test A postemergence, corn; details: Postemergence, 0 to 100 scale (0 no effect, 100 complete control); for Corn plant response rating: visual injury vs untreated controls after approx. 10 days
Method in brief: as §1

[8] = test system: galium (catchweed bedstraw, Galium aparine); assay: Test A postemergence, galium; details: Postemergence, 0 to 100 scale (0 no effect, 100 complete control); for Galium plant response rating: visual injury vs untreated controls after approx. 10 days
Method in brief: (§2)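 After sowing into a sand-amended loam, pots for the preemergence test were treated by spraying directly onto soil. In parallel, seedlings at the one- to two-leaf stage and 2 to 10 cm tall were treated postemergence with the identical surfactant-containing formulation.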

[9] = test system: wheat (Triticum aestivum); assay: Test A postemergence, wheat; details: Postemergence, 0 to 100 scale (0 no effect, 100 complete control); for Wheat plant response rating: visual injury vs untreated controls after approx. 10 days
Method in brief: as §2

[10] = test system: ragweed (common ragweed, Ambrosia artemisiifolia); assay: Test A postemergence, ragweed; details: Postemergence, 0 to 100 scale (0 no effect, 100 complete control); for Ragweed plant response rating: visual injury vs untreated controls after approx. 10 days
Method in brief: as §1

[11] = test system: Ryegrass, Italian (Italian ryegrass, Lolium multiflorum); assay: Test A postemergence, Ryegrass, Italian; details: Postemergence, 0 to 100 scale (0 no effect, 100 complete control); for Ryegrass, Italian plant response rating: visual injury vs untreated controls after approx. 10 days
Method in brief: as §1

[12] = test system: pigweed (Amaranthus retroflexus); assay: Test A postemergence, pigweed; details: Postemergence, 0 to 100 scale (0 no effect, 100 complete control); for Pigweed plant response rating: visual injury vs untreated controls after approx. 10 days
Method in brief: as §1

[13] = test system: blackgrass (Alopecurus myosuroides); assay: Test A postemergence, blackgrass; details: Postemergence, 0 to 100 scale (0 no effect, 100 complete control); for Blackgrass plant response rating: visual injury vs untreated controls after approx. 10 days
Method in brief: as §1

[14] = test system: pigweed (Amaranthus retroflexus); assay: Test A preemergence, pigweed; details: for Pigweed plant response rating: 125 g ai/ha, visual injury on 0 to 100 scale (0 no effect, 100 complete control), approximately 10 days; for Plant response rating, Pigweed: 500 g ai/ha, 0 to 100 scale (0 no effect, 100 complete control)
Excerpt: Seeds of plant species selected from barnyardgrass (Echinochloa crus-galli), kochia (Bassia scoparia), ragweed (common ragweed, Ambrosia artemisiifolia), Ryegrass, Italian (Italian ryegrass, Lolium multiflorum), Foxtail, Giant (giant foxtail, Setaria faberi), and pigweed (Amaranthus retroflexus) were planted into a blend of loam soil and sand and treated preemergence with a directed soil spray using test chemicals formulated in a non-phytotoxic solvent mixture which included a surfactant. At the same time, plants selected from these weed species and also wheat (Triticum aestivum), corn (Zea mays), blackgrass (Alopecurus myosuroides), and galium (catchweed bedstraw, Galium aparine) were planted in pots containing the same blend of loam soil and sand and treated with postemergence applications of test chemicals formulated in the same manner. Plants ranged in height from 2 to 10 cm and were in the one- to two-leaf stage for the postemergence treatment. […] A dash (-) response means no test result.

[15] = test system: barnyardgrass (Echinochloa crus-galli); assay: Test A postemergence, barnyardgrass; details: Postemergence, 0 to 100 scale (0 no effect, 100 complete control)
Method in brief: as §2

[16] = 125 g ai/ha, visual injury approx. 10 days
[17] = 125 g ai/ha, visual injury, approx. 10 days
[18] = 500 g ai/ha, visual injury approx. 10 days

SMILES: Cc1cc(C)c(N(S(=O)(=O)C(F)(F)F)S(=O)(=O)C(F)(F)F)cc1-c1cc(Cl)nn(C)c1=O [Compound 74]
- Kochia plant response rating (kochia (Bassia scoparia) [1]; 125 g ai/ha): 70
- Plant response rating, Kochia (kochia (Bassia scoparia) [1]; 500 g ai/ha): 100
- Barnyardgrass plant response rating ([2]; 125 g ai/ha): 90
- Plant response rating, Barnyardgrass ([2]; 500 g ai/ha): 100
- Ragweed plant response rating ([3]; 125 g ai/ha): 70
- Plant response rating, Ragweed ([3]; 500 g ai/ha): 90
- Plant response rating, Foxtail, Giant [4, 16]: 40
- Foxtail, Giant plant response rating ([4]; 500 g ai/ha): 80
- Plant response rating, Kochia (kochia (Bassia scoparia) [5]; [16]): 30
- Kochia plant response rating (kochia (Bassia scoparia) [5]; 500 g ai/ha): 90
- Foxtail, Giant plant response rating ([6]; 125 g ai/ha): 100
- Plant response rating, Foxtail, Giant ([6]; 500 g ai/ha): 100
- Ryegrass, Italian plant response rating ([7]; 125 g ai/ha): 80
- Plant response rating, Ryegrass, Italian ([7]; 500 g ai/ha): 100
- Plant response rating, Corn (corn (Zea mays); [16]): 0
- Corn plant response rating (corn (Zea mays); 500 g ai/ha): 10
- Plant response rating, Galium [8, 16]: 50
- Galium plant response rating ([8]; 500 g ai/ha): 90
- Plant response rating, Wheat [9, 16]: 60
- Wheat plant response rating ([9]; 500 g ai/ha): 70
- Plant response rating, Ragweed [10, 16]: 0
- Ragweed plant response rating ([10]; 500 g ai/ha): 30
- Plant response rating, Ryegrass, Italian [11, 16]: 20
- Ryegrass, Italian plant response rating ([11]; 500 g ai/ha): 70
- Plant response rating, Pigweed [12, 16]: 80
- Pigweed plant response rating ([12]; 500 g ai/ha): 90
- Plant response rating, Blackgrass [13, 16]: 40
- Blackgrass plant response rating ([13]; 500 g ai/ha): 50
- Pigweed plant response rating [14]: 60
- Plant response rating, Pigweed [14]: 100

SMILES: Cc1cc(-c2cc(N(S(=O)(=O)C(F)(F)F)S(=O)(=O)C(F)(F)F)c(C)cc2C)c(=O)n(C)n1 [Compound 75]
- Kochia plant response rating (kochia (Bassia scoparia) [1]; 125 g ai/ha): 80
- Plant response rating, Kochia (kochia (Bassia scoparia) [1]; 500 g ai/ha): 100
- Barnyardgrass plant response rating ([2]; 125 g ai/ha): 90
- Plant response rating, Barnyardgrass ([2]; 500 g ai/ha): 100
- Ragweed plant response rating ([3]; 125 g ai/ha): 20
- Plant response rating, Ragweed ([3]; 500 g ai/ha): 80
- Plant response rating, Foxtail, Giant [4, 16]: 30
- Foxtail, Giant plant response rating ([4]; 500 g ai/ha): 90
- Plant response rating, Kochia (kochia (Bassia scoparia) [5]; [16]): 20
- Kochia plant response rating (kochia (Bassia scoparia) [5]; 500 g ai/ha): 80
- Foxtail, Giant plant response rating ([6]; 125 g ai/ha): 100
- Plant response rating, Foxtail, Giant ([6]; 500 g ai/ha): 100
- Ryegrass, Italian plant response rating ([7]; 125 g ai/ha): 80
- Plant response rating, Ryegrass, Italian ([7]; 500 g ai/ha): 100
- Plant response rating, Corn (corn (Zea mays); [16]): 0
- Corn plant response rating (corn (Zea mays); 500 g ai/ha): 0
- Plant response rating, Galium [8, 16]: 70
- Galium plant response rating ([8]; 500 g ai/ha): 90
- Plant response rating, Wheat [9, 16]: 40
- Wheat plant response rating ([9]; 500 g ai/ha): 70
- Plant response rating, Ragweed [10, 16]: 0
- Ragweed plant response rating ([10]; 500 g ai/ha): 50
- Plant response rating, Ryegrass, Italian [11, 16]: 20
- Ryegrass, Italian plant response rating ([11]; 500 g ai/ha): 60
- Plant response rating, Pigweed [12, 16]: 40
- Pigweed plant response rating ([12]; 500 g ai/ha): 80
- Plant response rating, Blackgrass [13, 16]: 30
- Blackgrass plant response rating ([13]; 500 g ai/ha): 70
- Pigweed plant response rating [14]: 80
- Plant response rating, Pigweed [14]: 100

SMILES: Cc1cc(C)c(N(S(=O)(=O)C(F)(F)F)S(=O)(=O)C(F)(F)F)cc1N1CC2(CCCCC2)OC1=O [Compound 269]
- Plant response rating, Kochia (kochia (Bassia scoparia) [1]; [17]): 70
- Kochia plant response rating (kochia (Bassia scoparia) [1]; 500 g ai/ha): 100
- Plant response rating, Barnyardgrass [2, 17]: 100
- Barnyardgrass plant response rating ([2]; 500 g ai/ha): 100
- Plant response rating, Ragweed [3, 17]: 80
- Ragweed plant response rating ([3]; 500 g ai/ha): 90
- Plant response rating, Foxtail, Giant ([4]; 125 g ai/ha): 0
- Plant response rating, Foxtail, Giant [4, 18]: 0
- Plant response rating, Kochia (kochia (Bassia scoparia) [5]; 125 g ai/ha): 30
- Plant response rating, Kochia (kochia (Bassia scoparia) [5]; [18]): 50
- Plant response rating, Foxtail, Giant [6, 17]: 100
- Foxtail, Giant plant response rating ([6]; 500 g ai/ha): 100
- Plant response rating, Ryegrass, Italian [7, 17]: 80
- Ryegrass, Italian plant response rating ([7]; 500 g ai/ha): 100
- Plant response rating, Corn (corn (Zea mays); 125 g ai/ha): 0
- Plant response rating, Corn (corn (Zea mays); [18]): 10
- Plant response rating, Galium ([8]; 125 g ai/ha): 70
- Plant response rating, Galium [8, 18]: 90
- Plant response rating, Wheat ([9]; 125 g ai/ha): 0
- Plant response rating, Wheat [9, 18]: 20
- Plant response rating, Ragweed ([10]; 125 g ai/ha): 40
- Plant response rating, Ragweed [10, 18]: 90
- Plant response rating, Ryegrass, Italian ([11]; 125 g ai/ha): 0
- Plant response rating, Ryegrass, Italian [11, 18]: 20
- Plant response rating, Barnyardgrass ([15]; 125 g ai/ha): 0
- Plant response rating, Barnyardgrass [15, 18]: 20
- Plant response rating, Pigweed ([12]; 125 g ai/ha): 30
- Plant response rating, Pigweed [12, 18]: 70
- Plant response rating, Blackgrass ([13]; 125 g ai/ha): 20
- Plant response rating, Blackgrass [13, 18]: 20

From patent US20230278972A1, “SUBSTITUTED HALOALKYL SULFONANILIDE HERBICIDES” (FMC Corporation, priority 2020, published 2023)
